Entries after “also recorded” stand apart in the source; their conditions may differ. Square brackets hold non-standard residues; d marks the D form. Peptide text beside a SMILES is read from it. pY = N[C@@H](Cc1ccc(OP(=O)(O)O)cc1)C(=O)O; 2Nal = N[C@@H](Cc1ccc2ccccc2c1)C(=O)O

For assay [1], the target named is Keap1-Nrf2 interaction (Homo sapiens, UniProt Q14145). Briefly: Fluorescence anisotropy-based competition assay, inhibition of Keap1-Nrf2 peptide interaction. Format: binding. The settings on record: for Decrease of affinity for Keap1 / inhibition potency: Asn-Ala analogues vs Asp-Pro parents (BH13, BH15, BH17), BH19: truncation of cargo to 6-aa; for IC50: FA competition with fluorescently labeled Nrf2 peptide and Keap1. Here is the method:
The percentage of inhibition was calculated from the fluorescence anisotropy decrease by using equation % Inhibition=(FAmax−FAobs)/(FAmax−FAmin)×100% and plotted against the inhibitor concentration.
On the technique in general: Polarisation of emitted light reports the rotation of a fluorescent probe.

Assay [2] deals with HO-1 protein (Keap1-Nrf2-ARE pathway), HEK293 cells. The assay is described as follows: Anti-HO1 immunoblot of HO-1 protein level in HEK293 cells. Format: cell-based, human. Here is the method: FIG. 5 is an image from a Western blot analysis of HO-1 protein levels in HEK293 cells untreated or after treatment with SFN (10 μM) or a cyclic β-hairpin peptide (40 μM).
FIG. 8 is a western blot showing the effect of peptide BH15 on the protein level of HO-1, a protein downstream of the Keap1-Nrf2-ARE pathway. SFN, a small-molecule positive control; blank, no inhibitor.
The cellular activity of Keap1-Nrf2 inhibitors BH13-18 was assessed by examining their effects on the expression levels of HO-1 protein, by anti-HO1 immunoblot analysis. HO-1 is an antioxidant enzyme under the transcriptional control of Nrf2 binding to the ARE, and disruption of the Keap1-Nrf2 interaction is expected to increase the protein level of HO-1.
(§1) BH15 enters human cells, binds and inhibits the function of Keap1 (which promotes the ubiquitination and degradation of Nrf2), resulting in increased intracellular levels of Nrf2, a transcription factor. […] This in turn results in the increased levels of HO-1, a protein whose expression is controlled by Nrf2.

Assay [3] has as its system HeLa cells. The assay is described as follows: Cellular (cytosolic) uptake of NF-labeled peptides by flow cytometry (MFI). In kind it is cell-based. The settings on record: HeLa cells, flow cytometry. Here is the method: HeLa cells were treated with 5 μM peptide for 2 h, and their cell uptake efficiencies were determined by flow cytometry analysis. The mean fluorescence intensity (MFI) values derived from cytometry analyses reflect the amounts of peptides inside the cytosol and nucleus, whereas any NF-labeled peptide entrapped inside the acidic endosomes are invisible under the experimental conditions (Id.; Qian, Z et al. Chem. Commun. 2015, 51, 2162-2165).
(§2) The binding affinity of BH23 (unlabeled) for the Grb2 SH2 domain was then determined by examining its ability to compete with the FAM-labeled ligand for binding to the Grb2 SH2 domain by fluorescence polarization (FP). […] Next, BH23 was labeled with NF at the Asn side chain through a miniPEG-Lys linker and its cytosolic entry efficiency was quantitated by treating HeLa cells with 5 μM of the labeled peptide for 2 h before flow cytometry analysis. […] BH23 was also similarly labeled at the Asn side chain with FAM and its entry into HeLa cells was examined by live-cell confocal microscopy. […] Two control peptides (BH24 and BH25) were also prepared for cellular assays. BH24 and BH25 are structurally similar to BH23, except that BH24 contained a Tyr instead of the pY residue (FIG. 11), whereas in BH25 the two hydrophobic residues critical for cellular uptake (Nal-arg) were replaced with Ala-ala (FIG. 12).
BHT1 and BHT2 were labeled with naphthofluorescein (NF) and their cytosolic uptake into HeLa cells was determined by flow cytometry (Table 10).
Additional cell penetrating compounds were prepared and tested for cytosolic delivery. In these compounds there was no beta-hairpin turn creating moiety.
A general note: Flow cytometry measures light scatter and fluorescence of single cells or particles in a stream.

For assay [4], the system named is mammalian cells. To be noted: Qian et al. 2013; cited from earlier work.
Assay [5] relates to Grb2/Ras signaling pathway, MDA-MB-468 breast cancer cells. The assay is described as follows: Western blot of MEK and ERK1/2 phosphorylation in EGF-stimulated MDA-MB-468 cells. In kind it is cell-based. The settings on record: peptide 2 h, EGF 50 ng/mL 10 min. On the procedure:
FIG. 13 provides western blots depicting the effect of peptides BH23, BH24, and BH25 on the Grb2/Ras signaling pathway. MDA-MB-468 cells were treated with the indicated concentrations of peptide BH23 (a) or control peptides BH24 and BH25 (b) for 2 h and stimulated with EGF (50 ng/mL) for 10 min. The cells were then lysed and the cell lysates were separated on SDS-PAGE and blotted with antibodies specific for phosphorylated and total kinases in the Ras signaling pathway. Glyceraldehyde 3-phosphate dehydrogenase (GAPDH) was used as the loading control. […] Inhibition of ERK1/2 phosphorylation was less dramatic, as expected from its further downstream position on the Grb2/Ras signaling pathway.
FIG. 14(a) is the structure of BH26. FIG. 14(b) provides western blots showing the effect of peptides BH23 and BH26 on the Grb2/Ras signaling pathway. MDA-MB-468 cells were treated with the indicated concentrations of BH23 or BH26 for 2 h and stimulated with EGF (50 ng/mL) for 10 min. The cells were then lysed and the cell lysates were separated on SDS-PAGE and blotted with antibodies specific for phosphorylated and total kinases in the Ras signaling pathway.
BH23 and BH24 were tested for their ability to inhibit the Grb2/Ras signaling pathways, by monitoring the phosphorylation of MEK and ERK1/2 kinases downstream of Ras.
For orientation: Immunoblotting shows a protein as a band on a membrane.

In assay [6] the test system is Nrf2 protein level, HEK293 cells. Briefly: Western blot of Nrf2 protein level in cytoplasm and nucleus of HEK293 cells. Format: cell-based, human. To be noted: varying doses.
Description: The cellular activity of Keap1-Nrf2 Inhibitor BH15 was characterized, and it was observed that BH15 is biologically active in cell-based assays. Varying doses of BH15 were provided to HEK293 cells in culture. After a period of time, the cells were lysed, and cytosolic fractions were separated from nuclear fractions.
as §1

Assay [7] addresses Grb2 SH2 domain (Homo sapiens, UniProt P62993). Briefly: FP-based competition assay with FAM-labeled reporter ligand for Grb2 SH2 domain. Format: binding. On the procedure: FIG. 10(a) is the structure of a Grb2 SH2 ligand. […] This ligand was used as reporter ligand in FA/FP-based competition assays to determine the binding affinities of new Grb2 SH2 domain ligands.
as §2

For assay [8] the following is noted: LaRochelle et al. 2015; cited from earlier work.

Sequence of Keap1-Nrf2 interaction (Q14145 321-609 limits assumed): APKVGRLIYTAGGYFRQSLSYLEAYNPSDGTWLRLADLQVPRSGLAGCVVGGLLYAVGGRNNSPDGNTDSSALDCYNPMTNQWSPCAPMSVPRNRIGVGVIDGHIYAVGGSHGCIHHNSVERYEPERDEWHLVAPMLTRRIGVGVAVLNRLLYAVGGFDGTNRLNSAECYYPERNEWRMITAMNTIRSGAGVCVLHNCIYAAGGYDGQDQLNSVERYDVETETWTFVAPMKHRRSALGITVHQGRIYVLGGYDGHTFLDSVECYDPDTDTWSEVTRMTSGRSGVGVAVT
Sequence of Grb2 SH2 domain (P62993 60-152 limits assumed): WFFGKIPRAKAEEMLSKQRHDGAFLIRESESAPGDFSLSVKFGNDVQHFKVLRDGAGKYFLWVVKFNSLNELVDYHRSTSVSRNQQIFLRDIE

Regarding `CC(C)C[C@@H]1NC(=O)[C@H](CCC(N)=O)NC(=O)[C@H](Cc2ccccc2)NC(=O)[C@H](CCCNC(=N)N)NC(=O)[C@H](CCCNC(=N)N)NC(=O)[C@@H]2CCCN2C(=O)[C@H]2CCCN2C(=O)[C@@H](CCCNC(=N)N)NC(=O)[C@H](Cc2ccc3ccccc3c2)NC(=O)[C@H](Cc2ccccc2)NC(=O)[C@H](Cc2ccccc2)NC(=O)[C@H](CCC(=O)O)NC(=O)CNC(=O)[C@H]([C@@H](C)O)NC(=O)[C@H](CCC(=O)O)NC(=O)[C@H](C)NC(=O)[C@H](CC(N)=O)NC1=O` [BH14, cyclo(F-F-Φ-r-p-P-R-R-F-Q-L-N-A-E-T-G-E)] (cyclo(FF[2Nal][dR][dP]PRRFQLNAETGE)), in assay [1], the “Decrease of affinity for Keap1 / inhibition potency” value was around 10 fold and the IC50 – broadly, the concentration that inhibits the measured activity by half – was 1.4 ± 0.13 µM.
For `C[S+]([O-])CCCCN=C=S` (centres unmarked) [SFN, Sulforaphane, reference compound], the “HO-1 level (positive control)” value in assay [2] (10 μM) is given as “increased”.
With “cyclo(F-Φ-R-R-R-R-Q)-miniPEG-K(NF) (cyclo(F[2Nal]RRRRQ); not fully specified (residue 7); printed as cyclo(F-Φ-R-R-R-R-Q)-miniPEG-K(NF)) [CPP1, reference compound]”, in assay [3] (5 μM NF-labeled peptide, 2 h, relative to CPP1 (100%)), the “Cellular Uptake (MFINF, %)” value is on record as 100%. The “Cellular Uptake (MFI^NF, %) of Keap1-Nrf2 inhibitors” value in assay [3] (NF-labeled peptide, relative to CPP1 (100%)) was found to be 100%. Besides, the “Efficiency of entry into cytoplasm and nucleus, fold higher than nonaarginine (R9)” value in assay [4] was 2-5 fold.
`C[C@@H]1NC(=O)[C@H](CC(N)=O)NC(=O)[C@H](Cc2ccccc2)NC(=O)[C@H](CCCNC(=N)N)NC(=O)[C@H](CCCNC(=N)N)NC(=O)[C@@H]2CCCN2C(=O)[C@H]2CCCN2C(=O)[C@@H](CCCNC(=N)N)NC(=O)[C@H](Cc2ccc3ccccc3c2)NC(=O)[C@H](Cc2ccccc2)NC(=O)[C@H](CCC(=O)O)NC(=O)CNC(=O)[C@H]([C@@H](C)O)NC(=O)[C@H](CCC(=O)O)NC1=O` [BH19, cyclo(F-Φ-r-p-P-R-R-F-N-A-E-T-G-E)] (cyclo(F[2Nal][dR][dP]PRRFNAETGE)): in assay [1], the “Decrease of affinity for Keap1 / inhibition potency” value is reported as 34 fold.
For `CC(C)[C@@H]1NC(=O)[C@H](Cc2ccc(OP(=O)(O)O)cc2)NC(=O)[C@H](CCCNC(=N)N)NC(=O)[C@H](CCCNC(=N)N)NC(=O)[C@@H]2CCCN2C(=O)[C@H]2CCCN2C(=O)[C@@H](C)NC(=O)[C@H](C)NC(=O)[C@H](Cc2ccccc2)NC(=O)[C@H](CC(N)=O)NC1=O` [BH25, cyclo[F-A-a-p-P-R-R-pY-V-N)] (cyclo([pY]VNFA[dA][dP]PRR)), the “Cellular entry / delivery efficiency (in words)” value in assay [3] is given as “poor cellular uptake”. For the same molecule, the “Phosphorylation of MEK” value in assay [5] was “did not decrease and not”.
In the case of `CC(C)C[C@@H]1NC(=O)[C@H](Cc2ccccc2)NC(=O)[C@H](CCCNC(=N)N)NC(=O)[C@H](CCCNC(=N)N)NC(=O)[C@@H]2CCCN2C(=O)[C@H]2CCCN2C(=O)[C@@H](CCCNC(=N)N)NC(=O)[C@H](Cc2ccc3ccccc3c2)NC(=O)[C@H](Cc2ccccc2)NC(=O)[C@H](CCC(=O)O)NC(=O)CNC(=O)[C@H]([C@@H](C)O)NC(=O)[C@H](CCC(=O)O)NC(=O)[C@H](C)NC(=O)[C@H](CC(N)=O)NC1=O` [BH18, cyclo(F-Φ-r-p-P-R-R-F-L-N-A-E-T-G-E)] (cyclo(F[2Nal][dR][dP]PRRFLNAETGE)), in assay [1], the “Decrease of affinity for Keap1 / inhibition potency” value is around 10 fold and the IC50 stood at 1.4 ± 0.15 µM.
Turning to `CC(C)C[C@@H]1NC(=O)[C@H](Cc2ccccc2)NC(=O)[C@H](CCCNC(=N)N)NC(=O)[C@H](CCCNC(=N)N)NC(=O)[C@@H]2CCCN2C(=O)[C@H]2CCCN2C(=O)[C@@H](CCCNC(=N)N)NC(=O)[C@H](Cc2ccc3ccccc3c2)NC(=O)[C@H](Cc2ccccc2)NC(=O)[C@H](Cc2ccccc2)NC(=O)[C@H](CCC(=O)O)NC(=O)CNC(=O)[C@H]([C@@H](C)O)NC(=O)[C@H](CCC(=O)O)NC(=O)[C@@H]2CCCN2C(=O)[C@H](CC(=O)O)NC1=O` [BH15, cyclo(F-F-Φ-r-p-P-R-R-F-L-D-P-E-T-G-E)], the “HO-1 level, dose response” value in assay [2] (varying doses) is “dose-dependently increased”. The molecule further gave an IC50 in assay [1] of around 0.16 µM. Moreover, the “Nrf2 levels in cytosolic and nuclear fractions” value in assay [6] was “dose-dependently increased”.
In the case of `CC(C)C[C@@H]1NC(=O)[C@H](Cc2ccccc2)NC(=O)[C@H](CCCNC(=N)N)NC(=O)[C@H](CCCNC(=N)N)NC(=O)[C@@H]2CCCN2C(=O)[C@H]2CCCN2C(=O)[C@@H](CCCNC(=N)N)NC(=O)[C@H](Cc2ccc3ccccc3c2)NC(=O)[C@H](Cc2ccccc2)NC(=O)[C@H](Cc2ccccc2)NC(=O)[C@H](CCC(=O)O)NC(=O)CNC(=O)[C@H]([C@@H](C)O)NC(=O)[C@H](CCC(=O)O)NC(=O)[C@H](C)NC(=O)[C@H](CC(N)=O)NC1=O` [BH16, cyclo(F-F-Φ-r-p-P-R-R-F-L-N-A-E-T-G-E)] (cyclo(FF[2Nal][dR][dP]PRRFLNAETGE)), the “Decrease of affinity for Keap1 / inhibition potency” value in assay [1] is around 10 fold.
As for `CC(C)C[C@@H]1NC(=O)[C@H](CCC(N)=O)NC(=O)[C@H](Cc2ccccc2)NC(=O)[C@H](CCCNC(=N)N)NC(=O)[C@H](CCCNC(=N)N)NC(=O)[C@@H]2CCCN2C(=O)[C@H]2CCCN2C(=O)[C@@H](CCCNC(=N)N)NC(=O)[C@H](Cc2ccc3ccccc3c2)NC(=O)[C@H](Cc2ccccc2)NC(=O)[C@H](Cc2ccccc2)NC(=O)[C@H](CCC(=O)O)NC(=O)CNC(=O)[C@H]([C@@H](C)O)NC(=O)[C@H](CCC(=O)O)NC(=O)[C@@H]2CCCN2C(=O)[C@H](CC(=O)O)NC1=O` [BH13, cyclo(F-F-Φ-r-p-P-R-R-F-Q-L-D-P-E-T-G-E)] (cyclo(FF[2Nal][dR][dP]PRRFQLDPETGE)), the IC50 in assay [1] is around 0.16 µM.
As for `CC(C)[C@@H]1NC(=O)[C@H](Cc2ccc(O)cc2)NC(=O)[C@H](CCCNC(=N)N)NC(=O)[C@H](CCCNC(=N)N)NC(=O)[C@@H]2CCCN2C(=O)[C@H]2CCCN2C(=O)[C@@H](CCCNC(=N)N)NC(=O)[C@H](Cc2ccc3ccccc3c2)NC(=O)[C@H](Cc2ccccc2)NC(=O)[C@H](CC(N)=O)NC1=O` [BH24, cyclo[F-Φ-r-p-P-R-R-Y-V-N)] (cyclo(YVNF[2Nal][dR][dP]PRR)), in assay [5], the “Phosphorylation of MEK” value was “did not decrease and not”. In addition, in assay [7] (competition with fluorescently labeled reporter ligand), the “Binding to the Grb2 SH2 domain (in words)” value is “no detectable binding; also recorded: inability to compete”. Moreover, in assay [7] (unlabeled peptide, FP-based competition with FAM-labeled ligand, read-out: IC50 Value, binding to Grb2 SH2 domain), the IC50 is above 10 µM.
For nonaarginine (RRRRRRRRR) [Peptide R9], the “Cytosolic delivery efficiency (ratio of cytosolic over extracellular cargo concentrations)” value in assay [8] is reported as 4.4%.

Source of the values: US11352394B2, “Cyclic cell penetrating peptides comprising beta-hairpin motifs and methods of making and using thereof” (Ohio State Innovation Foundation, priority 2016, dated 2022).
